Experimental findings from US20260256797A1, “NOVEL INDENONE DERIVATIVES AND USES THEREOF” (AMYLOID SOLUTION INC., priority 2022, published 2026) are described below.

One test deals with T1, Aβ1-42 (Homo sapiens, UniProt P05067).
T1 construct: dissolving Aβ1-42 or Tau-RD3 (Tau repeat domain 3) monomer in DMSO
Briefly: Amyloid-beta (Aβ) disaggregation test by thioflavin-T assay. The settings on record: 50 μM Aβ1-42 aggregated 24 hours, then compound 0-500 μM for 48 hours at 37° C. Type of test: biochemical. The method, then:
(§1) Each compound was dissolved in DMSO to a concentration of 10 mM. Subsequently, the compound was diluted with 6% DMSO (in DW) and used.
(§2) Specifically, amyloid-beta and tau solutions were prepared by dissolving Aβ1-42 or Tau-RD3 (Tau repeat domain 3) monomer in DMSO to a concentration of 10 mM. Thereafter, each solution was diluted with DW to a concentration of 100 μM and stored on ice. Meanwhile, thioflavin-T was dissolved in 50 mM glycine buffer (pH 8.5) to a concentration of 5 mM. Thereafter, the resulting solution was diluted with 50 mM glycine buffer (pH 8.5) to a concentration of 5 μM and stored in a dark room while light was blocked.
(§3) Each of the amyloid-beta and tau solutions prepared according to Experimental Example 1.1 was added to a 1.5 mL microcentrifuge tube to a concentration of 50 μM or 35 µM, and then a reaction was allowed to occur therebetween at 37° C. for 24 hours. Each of the 1.5 mL microcentrifuge tubes in which amyloid-beta aggregation and tau aggregation had been completed was treated with each compound at a concentrated of 500 μM to 0 μM through serial dilution, and then a further reaction was allowed to occur therebetween at 37° C. for 48 hours. 25 μL of the reaction solution in which the reaction had been completed was added to each well of a 96-well plate for fluorescence analysis, and 75 μL of the previously prepared thioflavin-T solution was added to each well. After a reaction was allowed to occur at room temperature in the dark for 5 minutes, fluorescence values were measured at excitation 450 nm and emission 485 nm by using a multi-mode microplate reader.
(§4) The fluorescence value of a group (control) treated with amyloid-beta or tau alone, followed by aggregation for 72 hours was converted into a percentage value and expressed as 100, and amyloid-beta and tau aggregates, in which aggregation had been completed upon reaction for 24 hours, were treated with each compound at each concentration and a further reaction was allowed to occur therebetween for 48 hours, and then fluorescence values thereof were measured and converted into relative values. The results thereof are illustrated in FIGS. 1 to 6 and 7 to 12. In addition, EC50 values of the compounds of the present disclosure for amyloid-beta and tau, respectively are summarized in Table 1.

Test [1] deals with Tau-RD3 (Tau repeat domain 3) (Homo sapiens, UniProt P10636). Put plainly: Tau disaggregation test by thioflavin-T assay. Type of test: biochemical. The settings on record: 35 μM Tau-RD3 aggregated 24 hours, then compound 0-500 μM for 48 hours at 37° C. As to the method: as §1, §2, §3, §4
Tau-RD3 (Tau repeat domain 3), sequence (P10636 623-653 limits assumed): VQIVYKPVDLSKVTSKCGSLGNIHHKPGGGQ

T1 sequence (P05067 672-713 limits assumed): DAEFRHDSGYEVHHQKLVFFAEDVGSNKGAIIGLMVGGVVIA

As for `Cc1ncsc1C1=C(c2cccnc2)C(=O)c2cc(OCCCCc3ccccc3)ccc21` [Compound 15, 3-(4-methylthiazol-5-yl)-6-(4-phenylbutoxy)-2-(pyridin-3-yl)-1H-inden-1-one], the figures for the EC50 (at Aβ1-42; in test [1]) were 2.5 µM and 59.8 µM, respectively.

Turning to `Cc1ncsc1C1=C(c2cccnc2)C(=O)c2cc(OCOCc3ccccc3)ccc21` [Compound 16, 6-((benzyloxy)methoxy)-3-(4-methylthiazol-5-yl)-2-(pyridin-3-yl)-1H-inden-1-one], the figures for the EC50 (at Aβ1-42; in test [1]) were 12.5 µM and 96.5 µM, respectively.

As to `Cc1scnc1C1=C(c2cccs2)C(=O)c2cc(OCOCc3ccccc3)ccc21` [Compound 30, 6-((benzyloxy)methoxy)-3-(5-methylthiazol-4-yl)-2-(thiophen-2-yl)-1H-inden-1-one], the figures for the EC50 (on Aβ1-42; in test [1]) were 3.7 µM and 410 µM, respectively.

In the case of `COc1ccc(OCCOc2ccc3c(c2)C(=O)C(c2cccnc2)=C3c2ccoc2)cc1` [Compound 42, 3-(furan-3-yl)-6-(2-(4-methoxyphenoxy)ethoxy)-2-(pyridin-3-yl)-1H-inden-1-one], the EC50 (usually the midpoint of the concentration-response curve) was 31.2 µM at Aβ1-42 and 124 µM in test [1].

With `Cc1scnc1C1=C(c2ccc(F)cc2)C(=O)c2cc(OCCOc3ccncc3)ccc21` [Compound 25, 2-(4-fluorophenyl)-3-(5-methylthiazol-4-yl)-6-(2-(pyridin-4-yloxy)ethoxy)-1H-inden-1-one], the concentration giving a half-maximal response (EC50) is 7.6 µM on Aβ1-42 and over 500 µM in test [1].

Take `Cc1ncsc1C1=C(c2ccccc2CC#N)C(=O)c2cc(OCCCc3ccccc3)ccc21` [Compound 2, 2-(2-(3-(4-methylthiazol-5-yl)-1-oxo-6-(3-phenylpropoxy)-1H-inden-2-yl)phenyl) acetonitrile]: the EC50 on Aβ1-42 is 92.9 µM; in test [1], 321 µM.

As for `Cc1scnc1C1=C(c2cncnc2)C(=O)c2cc(OCCOc3ccc(F)c(F)c3)ccc21` [Compound 27, 6-(2-(3,4-difluorophenoxy)ethoxy)-3-(5-methylthiazol-4-yl)-2-(pyrimidin-5-yl)-1H-inden-1-one], the results for the EC50 (at Aβ1-42; in test [1]) were 237 µM and over 500 µM, respectively.

As to `Cc1ncsc1C1=C(c2cccnc2)C(=O)c2cc(OCCc3ccccc3)ccc21` [Compound 14, 3-(4-methylthiazol-5-yl)-6-phenethoxy-2-(pyridin-3-yl)-1H-inden-1-one], the EC50 on Aβ1-42 was 177 µM; in test [1], over 500 µM.

On to `Cc1scnc1C1=C(c2cncnc2)C(=O)c2cc(OCCOc3ccc(Cl)c(Cl)c3)ccc21` [Compound 26, 6-(2-(3,4-dichlorophenoxy)ethoxy)-3-(5-methylthiazol-4-yl)-2-(pyrimidin-5-yl)-1H-inden-1-one], for which the EC50 at Aβ1-42 is 2.4 µM; in test [1], 4.8 µM.

Regarding `O=C1C(c2cccnc2)=C(c2cccs2)c2ccc(OCCCc3ccccc3)cc21` [Compound 6, 6-(3-phenylpropoxy)-2-(pyridin-3-yl)-3-(thiophen-2-yl)-1H-inden-1-one], the results for the EC50 (on Aβ1-42; in test [1]) were 3.2 µM and 16.2 µM, respectively.

For `O=C1C(c2cccnc2)=C(c2ccoc2)c2ccc(OCCCCc3ccccc3)cc21` [Compound 39, 3-(furan-3-yl)-6-(4-phenylbutoxy)-2-(pyridin-3-yl)-1H-inden-1-one], the EC50 at Aβ1-42 was 2.6 µM; in test [1] it was 10.7 µM.

Regarding `Cc1scnc1C1=C(c2cccs2)C(=O)c2cc(OCCOc3ccc(Cl)c(Cl)c3)ccc21` [Compound 36, 6-(2-(3,4-dichlorophenoxy)ethoxy)-3-(5-methylthiazol-4-yl)-2-(thiophen-2-yl)-1H-inden-1-one], the EC50 on Aβ1-42 is 26 µM; in test [1], over 500 µM.

`O=C1C(c2cccnc2)=C(c2ccoc2)c2ccc(OCCOc3ccc4c(c3)OCO4)cc21` [Compound 44, 6-(2-(benzo[d][1,3]dioxol-5-yloxy)ethoxy)-3-(furan-3-yl)-2-(pyridin-3-yl)-1H-inden-1-one]: the figures for the EC50 (on Aβ1-42; in test [1]) were 1.8 µM and 2.7 µM, respectively.

`Cc1ncsc1C1=C(Br)C(=O)c2cc(OCCCc3ccccc3)ccc21` [Compound 3, 2-bromo-3-(4-methylthiazol-5-yl)-6-(3-phenylpropoxy)-1H-inden-1-one]: the EC50 came out at 3.8 µM on Aβ1-42 and 8.5 µM in test [1].

As for `O=C1C(c2cccnc2)=C(c2ccoc2)c2ccc(OCCOc3ccccc3)cc21` [Compound 41, 3-(furan-3-yl)-6-(2-phenoxyethoxy)-2-(pyridin-3-yl)-1H-inden-1-one], the EC50 at Aβ1-42 is 1.1 µM; in test [1], 4.8 µM.

As to `COc1ccc(OCCOc2ccc3c(c2)C(=O)C(c2cccnc2)=C3c2ccoc2)cc1OC` [Compound 43, 6-(2-(3,4-dimethoxyphenoxy)ethoxy)-3-(furan-3-yl)-2-(pyridin-3-yl)-1H-inden-1-one], the EC50 on Aβ1-42 is 1.8 µM; in test [1], 2.8 µM.

For `Cc1scnc1C1=C(c2ccc(C(F)(F)F)cc2)C(=O)c2cc(OCCOc3ccc4c(c3)OCO4)ccc21` [Compound 34, 6-(2-(benzo[d][1,3]dioxol-5-yloxy)ethoxy)-3-(5-methylthiazol-4-yl)-2-(4-(trifluoromethyl)phenyl)-1H-inden-1-one], the EC50 came to 31.2 µM on Aβ1-42 and 426 µM in test [1].

Consider `O=C1C(c2cccnc2)=C(c2ccoc2)c2ccc(OCCOc3ccncc3)cc21` [Compound 45, 3-(furan-3-yl)-2-(pyridin-3-yl)-6-(2-(pyridin-4-yloxy)ethoxy)-1H-inden-1-one], for which the EC50 was 9.1 µM on Aβ1-42 and 11.9 µM in test [1].
